Assay results published in patent publication US11667602B2, “Compounds and their use” (AstraZeneca AB, priority 2020, dated 2023).
Converted amounts (≈) assume the structure as drawn. Like-named read-outs stand apart in the source and are kept apart here.

What was measured:
[1] = Human Liver Microsomal Stability (Test C); type: in vitro ADME; conditions: human, liver microsomes
Summary of the method: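 CLint (μl/min/mg protein) derived from compound depletion in human liver microsomes following a published standardized early-DMPK protocol; replicate determinations given as arithmetic mean.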

[2] = Human Plasma Protein Binding (Test B); type: in vitro ADME; conditions: fraction unbound (fu)
Summary of the method: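 Values given as % free (fu) in human plasma, using the method of Wernevik et al. (2020). For compounds tested more than once, the arithmetic mean is given.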

[3] = target: T1, human RXFP1 (Homo sapiens, UniProt Q9HBX9); assay: RXFP1 Hu cAMP (Test A); type: cell-based; set-up: expressed in transfected cells; host or cells: Jump-In T-REx CHO-K1 cells (ThermoFisher), induced with 10 ng/ml doxycycline for 24 h
T1 sequence (Q9HBX9 1-757): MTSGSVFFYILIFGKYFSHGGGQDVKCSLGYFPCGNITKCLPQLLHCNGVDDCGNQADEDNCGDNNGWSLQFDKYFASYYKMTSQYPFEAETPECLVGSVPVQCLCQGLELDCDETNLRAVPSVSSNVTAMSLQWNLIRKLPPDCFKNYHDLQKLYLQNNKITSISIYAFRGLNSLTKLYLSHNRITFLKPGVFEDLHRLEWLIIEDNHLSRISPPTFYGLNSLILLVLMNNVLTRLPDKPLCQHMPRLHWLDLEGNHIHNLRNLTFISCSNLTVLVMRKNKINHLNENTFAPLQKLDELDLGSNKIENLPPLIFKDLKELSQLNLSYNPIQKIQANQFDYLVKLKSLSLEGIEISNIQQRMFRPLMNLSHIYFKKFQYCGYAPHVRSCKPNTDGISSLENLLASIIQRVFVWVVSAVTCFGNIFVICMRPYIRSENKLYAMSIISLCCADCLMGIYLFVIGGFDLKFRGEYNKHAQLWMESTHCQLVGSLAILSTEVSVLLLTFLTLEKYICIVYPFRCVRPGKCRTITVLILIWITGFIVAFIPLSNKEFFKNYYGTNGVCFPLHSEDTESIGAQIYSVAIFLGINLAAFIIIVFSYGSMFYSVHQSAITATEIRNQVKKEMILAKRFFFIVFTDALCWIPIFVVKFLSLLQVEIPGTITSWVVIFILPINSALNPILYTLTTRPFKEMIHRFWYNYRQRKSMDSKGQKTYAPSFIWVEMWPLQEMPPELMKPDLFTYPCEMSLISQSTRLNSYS
Summary of the method: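 Cells: CHO-K1 stably carrying human RXFP1, expressed after 24 h 10 ng/ml doxycycline; 0.5 mM IBMX final, HTRF detection after 2 h at room temperature.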

[4] = Rat Hepatocyte Stability (Test E); type: in vitro ADME; conditions: rat, hepatocytes, geometric mean if run multiple times
Summary of the method: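 Intrinsic clearance in rat hepatocytes, expressed as μl/min/10^6 cells, following the literature integrated DMPK panel method. Repeat determinations combined as geometric mean.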

[5] = Human Hepatocyte Stability (Test D); type: in vitro ADME; conditions: human, cryopreserved pooled human hepatocytes (LiverPool 10-Donor), geometric mean if run multiple times
Summary of the method: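 Intrinsic clearance (μL/min/10^6 cells), derived as kV/N from the log-linear loss of parent compound. Compound incubated at 37 °C with cryopreserved pooled human hepatocytes, 0.25×10^6 cells in 0.25 mL L-15; dosing solution 100 μM in acetonitrile. Singlicate incubations, cassette LC-MS; repeats reported as geometric mean.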

[6] = Solubility (Test F); type: physicochemical; conditions: arithmetic mean if run multiple times
Method: The assay was conducted according to the Solubility Assay described in pages 164-167 of Wernevik, J. et al., “A Fully Integrated Assay Panel for Early Drug Metabolism and Pharmacokinetics Profiling”, Assay and Drug Development Technologies, 2020, 18(4), 157-179. Data are reported in Table 36 as solubility ([…]. Where the assay was run multiple times for the same compound, the arithmetic mean is reported.

[7] = RXFP1 Hu cAMP, read-out: Test A EC50

SMILES | microsomal CLint [1] [µL/min/mg] | Test B Human Plasma Protein Binding (% free) [2] [% free] | Test A Sinf ([3]; RXFP1 Hu cAMP) [%] | EC50 [3, 7] [µM] | hepatocyte CLint [4] [µL/min/1e6 cells] | hepatocyte CLint at 1 µM [5] [µL/min/1e6 cells] | solubility [6] [µM] | EC50 ([3]; Test A EC50, RXFP1 Hu cAMP) [µM]
COc1cc(F)c(O[C@H]2C[C@@H](C(=O)O)C2)cc1C(=O)NC1[C@H]2CC[C@H](C2)[C@@H]1C(=O)Nc1cccc(S(=O)(=O)C(F)(F)F)c1 (stereo partly drawn) [Example 444] | 18 | 2.5 | 117 | 0.12 | 22 | 15 | > 1000 | 
COc1c(F)cc(O[C@H]2CC[C@@](C)(C(=O)O)CC2)cc1C(=O)N[C@@H]1[C@H]2CC[C@H](C2)[C@@H]1C(=O)NCC1(C)CCC1 [Example 374] | 44 | 2.9 |  |  | 21 | 5.3 | 680 (≈ 370 µg/mL) | 0.044
COc1cc(F)c(O[C@H]2CC[C@@](CO)(C(=O)O)CC2)cc1C(=O)N[C@@H]1[C@H]2CC[C@H](C2)[C@@H]1C(=O)NCC1(C(F)(F)F)CCC1 [Example 365] | 14 | 7.8 | 113 | 0.057 | 15 | 9.3 | 980 (≈ 602 µg/mL) | 
COc1cc(C#N)c(O[C@H]2CC[C@@](C)(C(=O)O)CC2)cc1C(=O)N[C@@H]1[C@H]2CC[C@H](C2)[C@@H]1C(=O)NC(C)(C)C [Example 99] | 6.2 | 20 | 113 | 0.14 | 11 | < 1 | 920 (≈ 484 µg/mL) | 
COc1cc(F)c(O[C@H]2CC[C@@](C)(C(=O)O)CC2)cc1C(=O)Nc1ccc(C)cc1C(=O)NCC1(C)CCC1 [Example 216, (1s,4s)-4-(2-Fluoro-4-methoxy-5-((4-methyl-2-(((1-methylcyclobutyl)methyl)-carbamoyl)phenyl)carbamoyl)phenoxy)-1-methylcyclohexane-1-carboxylic acid] | < 3 | 0.64 | 132 | 0.21 | 19 | 4.2 | 3.1 (≈ 1.68 µg/mL) | 
CCC1(CNC(=O)[C@H]2[C@@H]3CC[C@@H](C3)[C@H]2NC(=O)c2cc(O[C@H]3CC[C@@](C)(C(=O)O)CC3)c(F)cc2OC)CCC1 [Example 617] | 120 | 2.4 | 101 | 0.05 | 13 | 12 | 810 (≈ 453 µg/mL) | 
COc1cc(F)c(O[C@H]2CC[C@@](C)(C(=O)O)CC2)cc1C(=O)N[C@@H]1[C@H]2CC[C@H](C2)[C@@H]1C(=O)NC(C(C)C)C(C)C [Example 40] | 190 | 3.4 | 97 | 0.81 | 52 | 30 | 2.5 (≈ 1.4 µg/mL) | 
